Where a name gives a salt, the structure may show the parent alone. Read-outs that look alike come from different tables or passages of the source.
Test system: EVSA-T (human breast carcinoma)
Test: Anti-proliferative activity, Alamar Blue assay, EVSA-T
Format: cell-based
[1] = EVSA-T cells, 72 hours, Alamar Blue, dihydrochloride, read-out: EVSA-T prolif
[2] = Homo sapiens, EVSA-T, 72 h, EVSA-T cells, 72 hours, Alamar Blue, read-out: EVSA-T prolif
[3] = Homo sapiens, EVSA-T, read-out: EC50 in EVSA-T cell line assays

| Compound | EC50 [1] [nM] | EC50 [2] [nM] | EC50 [3] [nM] |
| --- | --- | --- | --- |
| C[C@@H]1CN(CC(=O)N2CC(C)(C)c3ncc(C(O)c4ccc(F)c(F)c4)cc32)[C@@H](CN2[C@H](C)COC[C@H]2C)CN1 (single isomer, unassigned) [Example 110, (R or S)-1-{6-[(3,4-Difluorophenyl)(hydroxy)meth-yl]-3,3-dimethyl-1H,2H,3H-pyrrolo[3,2-b]pyridin-1-yl}-2-[(2R,5R)-2-{[(3R,5R)-3,5-dimethylmorpholin-4-yl]methyl}-5-methylpiperazin-1-yl]ethan-1-one dihydrochloride] | 2.8 |  |  |
| CC(=O)N1CCN(C[C@H]2CN[C@H](C)CN2CC(=O)N2CC(C)(C)c3ncc(Cc4ccc(F)cc4)cc32)C(C)C1 (mixture of isomers) [Example 33, 2-[(2R,5R)-2-[(4-Acetyl-2-methylpiperazin-1-yl)methyl]-5-methylpiperazin-1-yl]-1-{6-[(4-fluorophenyl)methyl]-3,3-dimethyl-1H,2H,3H-pyrrolo[3,2-b]pyridin-1-yl}ethan-1-one dihydrochloride] |  | 0.46 | < 1000 |
| CC(C)[C@@H]1COCCN1C[C@H]1CN[C@H](C)CN1CC(=O)N1CC(C)(C)c2ncc(Cc3ccc(F)cc3)cc21 [Example 13, 1-{6-[(4-Fluorophenyl)methyl]-3,3-dimethyl-1H,2H,3H-pyrrolo[3,2-b]pyridin-1-yl)-2-[(2R,5R)-5-methyl-2-{[(3R)-3-(propan-2-yl)morpholin-4-yl]methyl}piperazin-1-yl]ethan-1-one dihydrochloride] |  | 1.2 | < 1000 |
| C[C@@H]1CN(CC(=O)N2CC(C)(C)c3ncc(Cc4ccc(F)cc4)cc32)[C@@H](CN2CCC[C@H]2CF)CN1 [Example 30, 2-[(2R,5R)-2-{[(2S)-2-(Fluoromethyl)pyrrolidin-1-yl]methyl}-5-methylpiperazin-1-yl]-1-{6-[(4-fluorophenyl)methyl]-3,3-dimethyl-1H,2H,3H-pyrrolo[3,2-b]pyridin-1-yl}ethan-1-one dihydrochloride] |  | 1.2 | < 1000 |
| CC1CC(=O)CCN1C[C@H]1CN[C@H](C)CN1CC(=O)N1CC(C)(C)c2ncc(Cc3ccc(F)cc3)cc21 (single isomer, unassigned) [Example 40, dihydrochloride] | 2.8 |  |  |
| C[C@@H]1CN(CC(=O)N2CC(C)(C)c3c2cc(Cc2ccc(F)cc2)c[n+]3[O-])[C@@H](CN2[C@H](C)COC[C@H]2C)CN1 [Example 121, 1-{2-[(2R,5R)-2-{[(3R,5R)-3,5-Dimethylmorpholin-4-yl]methyl}-5-methylpiperazin-1-yl]acetyl}-6-[(4-fluorophenyl)methyl]-3,3-dimethyl-1H,2H,3H-pyrrolo[3,2-b]-pyridin-4-oxide dihydrochloride] |  | 0.37 | < 1000 |
| C[C@@H]1CN(CC(=O)N2CC(C)(C)c3ncc(C(O)c4ccc(F)c(F)c4)cc32)[C@@H](CN2[C@H](C)COC[C@H]2C)CN1 (single isomer, unassigned) [Example 109, (R or S)-1-{6-[(3,4-Difluorophenyl)(hydroxy)meth-yl]-3,3-dimethyl-1H,2H,3H-pyrrolo[3,2-b]pyridin-1-yl}-2-[(2R,5R)-2-{[(3R,5R)-3,5-dimethylmorpholin-4-yl]methyl}-5-methylpiperazin-1-yl]ethan-1-one dihydrochloride] | 9.7 |  | < 1000 |
| CO[C@@H]1CN(C[C@H]2CN[C@H](C)CN2CC(=O)N2CC(C)(C)c3ncc(Cc4ccc(F)cc4)cc32)C[C@@H]1F (mixture of isomers) [Example 41] |  | 6 | < 1000 |
| C[C@@H]1CN(CC(=O)N2CC(C)(C)c3ncc(Cc4ccc(F)cc4)cc32)[C@@H](CN2CCC[C@H]2C(F)(F)F)CN1 [Example 36, 1-{6-[(4-Fluorophenyl)methyl]-3,3-dimethyl-1H,2H,3H-pyrrolo[3,2-b]pyridin-1-yl}-2-[(2R,5R)-5-methyl-2-{[(2S)-2-(trifluoromethyl)pyrrolidin-1-yl]methyl}piperazin-1-yl]ethan-1-one] |  | 12 | < 1000 |
| C[C@@H]1CN(CC(=O)N2CC(C)(C)c3ncc(C(O)c4cc(F)ccc4F)cc32)[C@@H](CN2[C@H](C)COC[C@H]2C)CN1 (single isomer, unassigned) [Example 115, 1-{(R or S)-6-[(2,5-Difluorophenyl)(hydroxy)meth-yl]-3,3-dimethyl-1H,2H,3H-pyrrolo[3,2-b]pyridin-1-yl}-2-[(2R,5R)-2-{[(3R,5R)-3,5-dimethylmorpholin-4-yl]methyl}-5-methylpiperazin-1-yl]ethan-1-one dihydrochloride] | 9.5 |  | < 1000 |
| C[C@@H]1CN(CC(=O)N2CC(C)(C)c3ncc(Cc4ccc(F)cc4)cc32)[C@@H](CN2Cc3cccnc3C2)CN1 [Example 21, 1-{6-[(4-Fluorophenyl)methyl]-3,3-dimethyl-1H,2H,3H-pyrrolo[3,2-b]pyridin-1-yl}-2-[(2R,5R)-5-methyl-2-{5H,6H,7H-pyrrolo[3,4-b]pyridin-6-ylmethyl}piperazin-1-yl]ethan-1-one dihydrochloride] |  | 3.7 | < 1000 |
| C[C@@H]1CN(CC(=O)N2CC(C)(C)c3ncc(Cc4ccc(F)cc4F)cc32)[C@@H](CN2C[C@H](CO)OC[C@H]2C)CN1 [Example 120, 1-{6-[(2,4-Difluorophenyl)methyl]-3,3-dimethyl-1H,2H,3H-pyrrolo[3,2-b]pyridin-1-yl}-2-[(2R,5R)-2-{[(2R,5R)-2-(hydroxymethyl)-5-methylmorpholin-4-yl]methyl}-5-methylpiperazin-1-yl]ethan-1-one, dihydrochloride] |  | 0.3 | < 1000 |
| COCC1(C)COCCN1C[C@H]1CN[C@H](C)CN1CC(=O)N1CC(C)(C)c2ncc(Cc3ccc(F)cc3)cc21 (single isomer, unassigned) [Example 99, dihydrochloride] |  | 1.5 |  |
| C[C@@H]1CN(CC(=O)N2CC(C)(C)c3ncc(Cc4ccc(F)cc4)cc32)[C@@H](CN2CCOCC23CC3)CN1 [Example 10, 1-{6-[(4-Fluorophenyl)methyl]-3,3-dimethyl-1H,2H,3H-pyrrolo[3,2-b]pyridin-1-yl}-2-[(2R,5R)-5-methyl-2-{7-oxa-4-azaspiro[2.5]octan-4-ylmethyl}piperazin-1-yl]ethan-1-one dihydrochloride] |  | 0.42 | < 1000 |
| C[C@@H]1CN(CC(=O)N2CC(C)(C)c3ncc(C(O)c4ccc(F)cc4F)cc32)[C@@H](CN2[C@H](C)COC[C@H]2C)CN1 (single isomer, unassigned) [Example 104, (R or S)-1-{6-[(2,4-Difluorophenyl)(hydroxy)meth-yl]-3,3-dimethyl-1H,2H,3H-pyrrolo[3,2-b]pyridin-1-yl}-2-[(2R,5R)-2-{[(3R,5R)-3,5-dimethylmorpholin-4-yl]methyl}-5-methylpiperazin-1-yl]ethan-1-one dihydrochloride] | 1.3 |  |  |
| C[C@@H]1CN(CC(=O)N2CC(C)(C)c3ncc(Cc4ccc(F)cc4)cc32)[C@@H](CN2CCC(F)(F)C2)CN1 [Example 6, 2-[(2R,5R)-2-[(3,3-Difluoropyrrolidin-1-yl)methyl]-5-methylpiperazin-1-yl]-1-{6-[(4-fluorophenyl)methyl]-3,3-dimethyl-1H,2H,3H-pyrrolo[3,2-b]pyridin-1-yl}ethan-1-one dihydrochloride] |  | 4.6 | < 1000 |
| C[C@@H]1CN(CC(=O)N2CC(C)(C)c3ncc(Cc4ccc(F)cc4)cc32)[C@@H](CN2CCOCC2(C)CO)CN1 (stereo partly drawn) [Example 47, 1-{6-[(4-Fluorophenyl)methyl]-3,3-dimethyl-1H,2H,3H-pyrrolo[3,2-b]pyridin-1-yl}-2-[(2R,5R)-2-{[3-(hydroxymethyl)-3-methylmorpholin-4-yl]methyl}-5-methylpiperazin-1-yl]ethan-1-one, dihydrochloride] |  | 0.9 | < 1000 |
| C[C@@H]1CN(CC(=O)N2CC(C)(C)c3ncc(C(O)c4ccccc4)cc32)[C@@H](CN2[C@H](C)COC[C@H]2C)CN1 (single isomer, unassigned) [Example 113, 2-[(2R,5R)-2-{[(3R,5R)-3,5-Dimethylmorpholin-4-yl]methyl}-5-methylpiperazin-1-yl]-1-{(R or S)-6-[hydroxy(phenyl)methyl]-3,3-dimethyl-1H,2H,3H-pyrrolo[3,2-]pyridin-1-yl}ethan-1-one dihydrochloride] |  | 9.4 | < 1000 |
| C[C@@H]1CN(CC(=O)N2CC(C)(C)c3ncc(Cc4ccc(F)cc4)cc32)[C@@H](CN2C[C@H](CO)OC[C@H]2C)CN1 [Example 119, 1-{6-[(4-Fluorophenyl)methyl]-3,3-dimethyl-1H,2H,3H-pyrrolo[3,2-b]pyridin-1-yl}-2-[(2R,5R)-2-{[(2R,5R)-2-(hydroxymethyl)-5-methylmorpholin-4-yl]methyl}-5-methylpiperazin-1-yl]ethan-1-one, dihydrochloride] |  | 0.32 | < 1000 |
| C[C@@H]1CN(CC(=O)N2CC(C)(C)c3cnc(Cc4ccc(F)cc4F)cc32)[C@@H](CN2[C@H](C)COC[C@H]2C)CN1 [Example 63, 1-{6-[(2,4-Difluorophenyl)methyl]-3,3-dimethyl-1H,2H,3H-pyrrolo[3,2-c]pyridin-1-yl}-2-[(2R,5R)-2-{[(3R,5R)-3,5-dimethylmorpholin-4-yl]methyl}-5-methylpiperazin-1-yl]ethan-1-one, dihydrochloride] |  | 0.48 | < 1000 |
| CC1CC(=O)CCN1C[C@H]1CN[C@H](C)CN1CC(=O)N1CC(C)(C)c2ncc(Cc3ccc(F)cc3)cc21 (stereo partly drawn) [Example 8, 1-{[(2R,5R)-1-(2-{6-[(4-Fluorophenyl)methyl]-3,3-dimethyl-1H,2H,3H-pyrrolo[3,2-b]pyridin-1-yl}-2-oxoethyl)-5-methylpiperazin-2-yl]methyl}-2-methylpiperidin-4-one dihydrochloride] |  | 3 | < 1000 |

From patent US9980973B2, “Bicyclic heterocycle compounds and their uses in therapy” (ASTEX THERAPEUTICS LIMITED, priority 2012, dated 2018)
